For data set [1] the following is noted: in vivo; cited from earlier work.
The test system of the next data set is infarction areas. To be noted: Circulation, Vol. 90, No. 4, 1994; cited from earlier work.
Data set [2] can be described thus: Determination of relaxivity R1 and R2 (Minispec PC 20). The class given is physicochemical. To be noted: bovine plasma; 40° C.; 0.47 tesla; n = 3. How it is done: Determination of Relaxivity R1 [Lmmol^−1 s^−1] and R2 [Lmmol^−1 s^−1]
Measurement at 40° C.; 0.47 tesla
T1-sequence 180°-TI-90°, inversion recovery

As for Gd-mesoporphyrin [1c, DE 4232925], in data set [1], the “deposition in the skin (photosensitization and discoloration)” value was “tend to be deposited in the skin”. In addition, in the data set with infarction areas, the “visualization of infarction areas” value is given as “readily visualize infarction areas”. In addition, in data set [2], the “Relaxivity R1” value is given as 15.3 ± 0.3 Lmmol^−1 s^−1 and the “Relaxivity R2” value was 16.3 ± 0.2 Lmmol^−1 s^−1.

As for Mn-tetraphenyl-porphyrin [Mn-TTP], the “visualization of infarction areas” value in the data set on infarction areas is “readily visualize infarction areas”.

As for “N,N-Bis[1,4,7-tris(carboxylatomethyl)-1,4,7,10-tetraazacyclododecane-Gd-complex-10-(3-aza-4-oxo-hexan-5-ylic)-acid]-4,4′-methylene-N′,N′-bis[(3-methoxy)-2-naphtoic acid]-tetrahydrazide [Example 4]”, in data set [2], the “Relaxivity R1” value was determined as 17.0 ± 0.1 Lmmol^−1 s^−1 and the “Relaxivity R2” value is 20.2 ± 0.6 Lmmol^−1 s^−1.

For “N-(1,4,7,-Tris(carboxylatomethyl)-1,4,7,10-tetraazacyclododecane-Gd-complex-10-[1-carboxylate-1-[3-oxapropionic acid)-phenyl]-methyl-N′-[3-(methoxy),2-naphthoic acid]-dihydrazide, sodium salt [Example 11]”, in data set [2], the “Relaxivity R1” value was determined as 22.8 ± 0.8 Lmmol^−1 s^−1 and the “Relaxivity R2” value is 29.2 ± 1.1 Lmmol^−1 s^−1.

Values taken from US20020052354A1, “Paramagnetic DOTA derivatives, pharmaceutical agents that contain the latter, process for their production, and their use for MR imaging of necrosis and infarction” (Schering AG, priority 2000, published 2002).
